Earlier results in patent US20090156670A1 (VENUS REMEDIES LIMITED, priority 2004, published 2009).

Tests used:
[1] = tested on: CD43; details: human neutrophils
[2] = molecular target: COX-I (Homo sapiens, UniProt P23219); details: oral form
[3] = tested on: interleukin1β-induced prostaglandin E2 production
[4] = tested on: CD31; details: human neutrophils
[5] = tested on: CD11a; details: human neutrophils
[6] = tested on: neutrophil aggregation
[7] = tested on: CD44; details: human neutrophils
[8] = pain elicited by chemical and mechanical stimuli
[9] = rats
[10] = tested on: ICAM-3; details: human neutrophils
[11] = tested on: CD11b; details: human neutrophils
[12] = rheumatoid arthritis patients, long-term (6 months) study
[13] = tested on: sodium urate-induced synovitis; details: dogs; prophylactically and therapeutically
[14] = tested on: adjuvant-induced polyarthritis; details: rats; prophylactically and therapeutically

COX-I, sequence (P23219 24-599): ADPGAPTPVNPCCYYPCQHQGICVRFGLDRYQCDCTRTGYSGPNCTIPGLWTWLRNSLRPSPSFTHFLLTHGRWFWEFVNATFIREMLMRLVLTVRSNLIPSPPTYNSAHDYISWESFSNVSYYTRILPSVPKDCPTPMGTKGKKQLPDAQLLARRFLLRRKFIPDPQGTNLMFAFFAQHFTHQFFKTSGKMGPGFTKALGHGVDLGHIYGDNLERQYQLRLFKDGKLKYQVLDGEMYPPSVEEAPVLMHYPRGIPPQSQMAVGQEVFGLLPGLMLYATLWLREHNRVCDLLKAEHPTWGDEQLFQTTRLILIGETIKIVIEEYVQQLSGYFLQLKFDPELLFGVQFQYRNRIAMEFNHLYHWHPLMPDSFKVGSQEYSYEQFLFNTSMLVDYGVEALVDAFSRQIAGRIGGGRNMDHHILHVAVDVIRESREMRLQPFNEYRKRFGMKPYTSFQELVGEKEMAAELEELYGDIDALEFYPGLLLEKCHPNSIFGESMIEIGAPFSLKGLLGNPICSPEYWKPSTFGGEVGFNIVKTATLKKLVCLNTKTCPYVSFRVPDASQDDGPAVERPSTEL

SMILES	decrement of CD43 expression [1]	COX-I inhibitor effect [2]	interleukin1β-induced prostaglandin E2 production [3]	CD31 expression [4]	CD11a expression [5]	neutrophil aggregation induced with anti-CD43 Mab [6]	CD44 expression [7]	analgesic effect compared with indometacin and diclofenac [8]	fever induced by brewer's yeast injection [9]	decrement of ICAM-3 expression [10]	CD11b expression [11]	incidence of gastrointestinal intolerance [12] [%]	activity against sodium urate-induced synovitis [13]	activity against adjuvant-induced polyarthritis [14]
O=C(O)COC(=O)Cc1ccccc1Nc1c(Cl)cccc1Cl [aceclofenac, 2-[(2,6-dichlorophenyl)amino]phenylacetoxyacetic acid]	moderate	poor	inhibits	unaffected	unaffected	significantly inhibited	unaffected	nearly equal to or slightly better	markedly suppressed	slight	slightly increased	13	highly active	highly active
O=C(O)Cc1ccccc1Nc1c(Cl)cccc1Cl [diclofenac]	–	–	–	–	–	–	–	–	–	–	–	17	–	–
